Assay results: patent publication US20120142750A1, “INDOLEAMINE 2,3-DIOXYGENASE PATHWAYS IN THE GENERATION OF REGULATORY T CELLS” (Regents of the University of Minnesota, priority 2005, published 2012)
Entries after “also recorded” stand apart in the source; their conditions may differ.

Experiments:
CHOP in Tregs = experiment: Intracellular CHOP expression in Tregs and OT-I cells cultured with TDLN pDCs; assay type: cell-based, mouse; conditions: 48 hours; with OVA antigen; no bystander cells
From the text: Flow cytometry. Details of the staining protocols are given below. For CHOP and Foxp3 staining, assays were set up without the A1 bystander cells, so that the Tregs were the only CD4^+ cells in the system and thus could be unambiguously followed throughout the assay.
FAGS staining. Antibodies were from BD-Pharmingen unless otherwise noted. Anti-mouse CD25-APC conjugate (clone PC61, cat. #17-0251-81) was from eBioscience: This conjugate gave brighter signal and better separation of CD25^+ cells than other conjugates from other suppliers. For intracellular staining of CHOP, live cells were first blocked for 10 minutes with mouse Fc Block (BD Pharmingen) in 10% fetal calf serum medium, stained with anti-CD4-FITC for 30 minutes on ice, washed with PBS, then fixed and permeablized for 20 minutes in 250 ul Cytoperm/Cytofix solution (BD Pharmingen) on ice. All subsequent staining and wash steps were in BD Permwash solution. Fixed cells were stained with 1:100 dilution of monoclonal anti-gadd153/CHOP (sc-7351, Santa Cruz Biotechnology), washed, and stained with secondary monoclonal rat anti-mouse-IgG1-PE (#550083, BD Biosciences). […] For CHOP staining, assays were set up without A1 bystander cells, so that Tregs were the only CD4^+ cells, and thus could be unambiguously followed throughout the assay. […]

PDCs = experiment: Surface expression of CD80, CD86, HLA-DR on PDCs (flow cytometry); assay type: cell-based, human; conditions: 1MT added to priming MLRs with CpG ODN
From the text: PDC, B, and T cell isolation. Human PBMC were isolated under IRE-approved protocols from apheresis products of healthy blood donors (Memorial Blood Centers of Minnesota, Minneapolis, Minn.) by Ficoll-Paque density gradient centrifugation. Plasmascytoid dendritic cells (PDCs) were isolated from PBMC using BDCA-4 cell isolation kits and the MACS system, followed by staining and sorting to collect purified Lin-CD11c-CD123+ PDCs, as reported previously (Moseman et al., J Immunol 2004; 173:4433-4442). CD4+CD45RA+ naïve T cells were isolated from PBMC using CD4 T cell isolation kits followed by positive selection with CD45RA microbeads. The purity of naïve CD4+ T cells was greater than 95% for CD4+CD45RA+ expression and less than 0.5% for CD25+ expression. B cells were isolated from PBMC with CD19 microbeads and the MACS system to greater than 98% purity of CD19+ B cells. All cell isolations kits and microbeads were from Miltenyi Biotec (Bergisch Gladbach, Germany).
Flow Cytometry. Fluorescent antibodies (Abs) against human CD3, CD4, CD11c, CD19, CD25, CD40, CD45, CD45RA, CD45RO, CD80, CD86, CD123, HLA-DR, lineage (Lin) markers, and isotype control Abs were from BD Biosciences (San Diego, Calif.). […] Mean fluorescence intensity (MFI) and positive cell percentages of stained cells were determined by flow cytometry.

[1] = system: primed CD4+ T cells / naive CD4+ T cells; experiment: MLR assays of function of CpG-PDC or CpG-B cell primed CD4+ T cells; assay type: cell-based, human
Description: In vitro priming of naive CD4+ T cells. CD4+CD45RA+ naive T cells were primed with allogeneic PDCs or irradiated B cells (30 Gy) at a 10:1 ratio (e.g., 2×10^6 naive CD4+ T cells plus 2×105 PDCs per well in 24-well plates) with ODN 2216 or ODN 2006 present in RPMI 1640 medium supplemented with 10% human AB serum. 1 MT and/or KYN were added into CpG ODN-PDC or CpG ODN-B cell mediated naive CD4+ T cell priming cultures as indicated. In some experiments, blocking Abs against CD80, CD86, HLA-DR or the control IgG Ab (R&D Systems, Minneapolis, Minn.) were added to CpG-PDC-mediated naive CD4+ T cell priming cultures at a final Ab concentration ranging from 0.1 to 10 μg/ml. After 7 days, primed T cells in cultures were harvested, assessed for their surface phenotype, intracellular Foxp3 expression, and their function in MLR assays.
MLR assays. […] In all T cell proliferation assays, plates were incubated at 37° C. for 5 days and pulsed with 1 μCi of 3H-thymidine per well for the last 18 hours before harvesting. All determinations were carried out in triplicate and 3H-thymidine incorporation was determined.

SMILES: Cn1cc(C[C@@H](N)C(=O)O)c2ccccc21 [Inhibitor 1MT, 1-methyl-D-tryptophan]
- CHOP induction in Tregs (and OT-I) (CHOP in Tregs): abrogated
- expression of cell surface maturation markers by PDCs (CD80, CD86, HLA-DR) (PDCs): insignificant effects
- T cell responses after priming with CpG ODN-activated B cells (control for nonspecific effects) ([1]; 1MT added to priming MLRs with IDO-negative B cells): no nonspecific effect
- anergy/hyporesponsiveness of primed CD4+ T cells to subsequent alloantigen stimulation ([1]; 1MT present during priming): prevented CD4+ T cells from becoming anergic/hyporesponsive
- suppressor/regulatory activity of PDC-primed T cells on proliferation of naive CD4+ T cells in MLR ([1]; 1MT present during priming): blocked the generation of suppressor/regulatory activity; also recorded: markedly reduced
